Reference: US20100099640A1, “TISSUE DEGENERATION PROTECTION” (priority 2007, published 2010)

What was measured:
healthy subjects = experiment: Stevioside 250 mg capsules thrice daily in healthy subjects; type: in vivo, human; settings: 10 healthy subjects
Description: The present invention relates to the diterpenoic tetrahydropyran, steviol-19-glucuronide (a natural metabolite of stevioside) and other diterpenoic tetrahydropyran derivatives. […] However, oral administration of stevioside results in the surprising finding that it increases the expression and activity of PPARs, and that it exerts system biological effects to normalise lipid metabolism and to inhibit the formation atherosclerotic cardiovascular disease.

diabetic rats = settings: blood of diabetic rats; cited from earlier work
[1] = test system: mice with combined leptin and LDL-receptor deficiency (double knockout [DKO] mice); experiment: Blood analyses (glucose, insulin, lipids, HOMA, adiponectin) in obese, dyslipidemic and diabetic DKO mice; type: in vivo, mouse
Description: We measured the effect of stevioside on weight, blood variables (e.g. glucose, insulin, lipids), PPAR expression in adipose tissues, and on atherosclerosis in mice with combined leptin and LDL-receptor deficiency (double knockout [DKO] mice).
(§1) Homozygous LDL-receptor-knockout mice (LDLR^(−/−)), heterozygous ob/+, and C57BL6 mice were purchased from Jackson Laboratory, Bar Harbor, Me. LDLR^(−/−) mice were backcrossed into a C57BL6 background to the 10th generation. To obtain DKO mice with combined leptin deficiency (ob/ob) and LDL-receptor deficiency, LDLR^(−/−) and ob/+ mice were crossed. All offspring were genotyped by polymerase chain reaction (PCR) techniques. All mice were housed at 22° C. on a fixed 12/12-hour light/dark cycle. Experimental procedures in animals were performed in accordance with protocols approved by the Institutional Animal Care and Research Advisory Committee. All mice were fed standard chow containing 4% fat (Pavan Service). Food intake was ≈5.7 g/d. Mice (about 50 g) were treated with stevioside (N=14; 10 mg/kg), steviol (N=9; 5 mg/kg) or placebo (N=17) for 12 weeks between 12 and 24 weeks of age. Stevioside (Molecular weight: 804) was dissolved in water (1 mg/ml) and 500 μl of the solution was administered orally. Steviol (Molecular weight: 318) was dissolved in water containing 6% NaHCO3 (1 mg/ml) and 250 μl of the solution was administered orally.
Blood of conscious mice was collected by tail bleeding into EDTA tubes after an overnight fast. Plasma was obtained by centrifugation. Plasma cholesterol and triglycerides were measured by means of standard enzymatic colorimetric assays (Boehringer Mannheim), plasma fatty acids (FFA) by means of the FFA-Half Microtest kit (Roche Applied Science), glucose by means of a glucometer (Menarini Diagnostics), plasma insulin and adiponectin by means ELISAs (Mercodia and R&D, respectively). Insulin resistance was calculated by a homeostasis model assessment (HOMA)=fasting serum insulin (mU/L) times fasting blood glucose (mmol/L)/22.5.

[2] = test system: RNA expression in white visceral (intra-abdominal) adipose tissue; experiment: Real-time RT-PCR of RNA expression in white visceral adipose tissue of treated DKO mice; type: in vivo, mouse
Experimental: as §1
The level of RNA expression in extracts of white visceral (intra-abdominal) adipose tissue and aortic arch was measured by real-time reverse transcription (RT)-PCR. Total RNA was extracted with the Trizol reagent (InVitrogen) and purified on an RNeasy kit column (Qiagen). First-strand cDNA was generated from total RNA by RT using random primers from Takara and Superscript III reverse transcriptase (InVitrogen). Quantitative real-time PCR was performed using SybrGreen master mix according to the supplier protocols (Applied Biosystems).). Oligonucleotides (InVitrogen) used as forward primer (F) and reverse primer (R) were: for mouse PPARalpha: F: 5′-[…]-3′; R: 5′-[…]-3′; for mouse PPARgamma: F: 5′-[…]-3′; R: 5′-GTCAGCGGGTGGGACTTTC-3′; for mouse FABP4: F: 5′-AACTGGGCGTGGAATTCG-3′; R: 5′-[…]-3′; for mouse iNOS: F: 5′-[…]-3′; R: 5′-[…]-3′; for mouse GLUT-4: F: 5′-[…]-3′; R: 5′-[…]-3′; for mouse IRS-1: F: 5′-[…]-3′; R: 5′-CGCCTCGGGAAGAGACAGT-3′; for mouse IRS-2: F: 5′-[…]-3′: R: 5′-[…]-3′; for mouse LXRalpha: F: 5′-[…]-3′; R: 5′-[…]-3′; for mouse SOD1: F: 5′-[…]-3′; R: 5′-[…]-3′; for mouse SOD2: F: 5′-TCGGTGGCGTTGAGATTGT; R: 5′-[…]-3′; for mouse SOD3: F: 5′-[…]-3′; R: 5′-GCTGCCGGAAGAGAACCAA-3′; and for mouse β-actin (housekeeping gene), F: 5′-[…]-3′; R: 5′-[…]-3′. The level of mRNA expression was calculated using the threshold cycle (Ct) value, i.e., the number of PCR cycles at which the fluorescent signal during the PCR reaches a fixed threshold. For each sample, the Ct both for the gene of interest and for the housekeeping gene β-actin were determined to calculate ΔCt,sample (Ct,target gene−Ct,housekeeping gene), thus normalizing the data and correcting for differences in amount and/or quality between the different RNA samples. The expression levels were related to an external calibrator consisting of intra-abdominal adipose tissue from C57BL6 control mice. Subsequently, ΔΔCt (ΔCt,sample−ΔCt,calibrator) was determined, and the relative expression levels were calculated from 2^−ΔΔCt according to the manufacturer's instructions (Applied Biosystems). RNA expression levels are thus indicated as arbitrary units ±SD

hypertensive rats = settings: direct intravenous injection; cited from earlier work
[3] = time points 3 days after administration
[4] = stevioside 10 mg/kg or steviol 5 mg/kg orally, 12 weeks, compared with placebo mice
[5] = stevioside 10 mg/kg orally, 12 weeks, compared to baseline levels
[6] = adipose tissue, stevioside 10 mg/kg orally, 12 weeks
[7] = adipose tissue, treatment with stevioside

In the case of `C=C1C[C@@]23CC[C@H]4C(C)(CCC[C@@]4(C)C(=O)O[C@@H]4O[C@H](CO)C(O)[C@H](O)C4O)[C@@H]2CCC1(OC1O[C@H](CO)C(O)C(O)C1OC1O[C@H](CO)C(O)[C@H](O)C1O)C3` (stereo in doubt) [stevioside, Kaur-16-en-18-oic acid, 13-[(2-O-b-D-glucopyranosyl-b-D-glucopyranosyl)oxy]-, b-D-glucopyranosyl ester, (4a)-], the 24-hour urinary volume (healthy subjects) is reported as “not significantly different”, the “mean blood glucose, control vs stevioside condition” value (healthy subjects) is reported as “no significant difference” and the “mean insulin, control vs stevioside condition” value (healthy subjects) is reported as “no significant difference”. For the same molecule, the “urinary excretion of electrolytes” value (healthy subjects) was “not significantly different”, the “blood biochemical parameters, control vs stevioside condition” value (healthy subjects; [3]) was “does not provide significant differences” and the “blood pressure, control vs stevioside condition” value (healthy subjects; [3]) was “does not provide significant differences”. The HDL-cholesterol (diabetic rats) was “increases”, the “serum concentration of LDL cholesterol” value (diabetic rats) was “lowers” and the “serum concentration of triglycerides” value (diabetic rats) was “lowers”. For the same molecule, the “plasma concentration of adiponectin” value ([1]; after 12 weeks of treatment, before treatment 4729±1652, P=0.003) was 6517 ± 1472 ng/mL, the FFA level [1, 4] was “significantly lower” and the “HOMA values (insulin resistance)” value [1, 4] was “significantly lower”. The cholesterol level [1, 4] was “significantly lower”, the glucose level [1, 4] was “significantly lower” and the insulin level [1, 4] was “significantly lower”. For the same molecule, the triglyceride level [1, 4] was “significantly lower”, the FFA [1, 5] was “reduced” and the cholesterol [1, 5] was “reduced”. For the same molecule, the glucose [1, 5] was “reduced”, the insulin [1, 5] was “reduced” and the triglycerides [1, 5] was “reduced”. For the same molecule, the insulin sensitivity ([1]; stevioside 10 mg/kg orally, 12 weeks, result of the decrease in glucose and insulin) was “increase”, the LPL expression ([2]; adipose tissue of stevioside-treated mice) was “not associated with a change” and the “expression of FABP-4” value [2, 6] was “increased expression”. The “expression of GLUT-4” value [2, 6] was “increased expression”, the “expression of IRS-1” value [2, 6] was “increased expression” and the “expression of IRS-2” value [2, 6] was “increased expression”. The “expression of LXRalpha” value [2, 6] was “increased expression”, the “expression of PPARalpha” value [2, 6] was “increased expression” and the “expression of PPARgamma” value [2, 6] was “increased expression”. The “expression of the antioxidant SOD3” value [2, 6] was “increased expression”, the “expression of CD36” value [2, 7] was “increased expression” and the expression of catalase [2, 7] was “increased expression”. The “expression of the insulin receptor (INSR)” value [2, 7] was “increased expression” and the blood pressure (hypertensive rats) was “blood pressure reduction”.
